Source: patent US7576057B2, “Cyclic peptides” (Scynexis, Inc., priority 2006, dated 2009)

How the values were obtained:
[1] = tested on: human hepatoma cell line ET (lub ubi neo/ET); experiment: Cytotoxicity (colorimetric cell number assay) in the ET line; settings: cytotoxicity versus antiviral activity
Method: The compounds were dissolved in DMSO at five half-log concentrations each, ranging from either 0.03 to 3 μM or 1 to 100 μM. Subconfluent cultures of the ET line were plated out into 96 well plates dedicated for the analysis of cell numbers (cytotoxicity) or antiviral activity and the next day the compounds were added to the appropriate wells. […] Compound EC50 and EC90 values were derived from HCV RNA levels assessed as HCV RNA replicon derived LUC activity. Cytotoxicity was expressed as IC50 and IC90, the concentration of compound that inhibited cell viability by 50% and 90%, respectively. Compound IC50 and IC90 values were calculated using a colorimetric assay as an indication of cell numbers and cytotoxicity. The activity of the LUC reporter is directly proportional to HCV RNA levels in the human cell line. The HCV-replicon assay was validated in parallel experiments using interferon-alpha-2b as a positive control. Cyclosporine was also tested by way of comparison.

[2] = tested on: human T-lymphoblastoid cell line, CEM-SS; experiment: Compound toxicity (MTS) in CEM-SS cells; format: cell-based
Method: Certain compounds of the present invention were also tested for antiretroviral activity against human immunodeficiency virus-1 (HIV) using infection of the human T-lymphoblastoid cell line, CEM-SS, with the HIV strain […] (Weislow et al., 1989, J. Natl. Cancer Inst. 81:577-586). In this MTS cytoprotection assay, each experiment included cell control wells (cells only), virus control wells (cells plus virus), drug toxicity wells (cells plus drug only), drug calorimetric control wells (drug only) as well as experimental wells (drug plus cells plus virus). Compounds were first dissolved in DMSO and tested using six half-log dilutions, starting with a high concentration of either 20 or 2 μM. HIV-1RF was added to each well in a volume of 50 μL, the amount of virus determined to give approximately 90% cell killing at 6 days post-infection. At assay termination, assay plates were stained with the soluble tetrazolium-based dye MTS (CellTiter 96 Reagent, Promega) to determine cell viability and quantify compound toxicity. MTS is metabolized by the mitochondria enzymes of metabolically active cells to yield a soluble formazan product, providing a quantitative analysis of cell viability and compound cytotoxicity. The assay was validated in parallel experiments using Zidovudine (3′-azido-3′-deoxythymidine or AZT) as a positive control. […]

`C/C=C/C[C@@H](C)[C@@H](O)[C@H]1C(=O)N[C@@H](CC)C(=O)N(C)CC(=O)N(C)[C@@H](CC(C)C)C(=O)N[C@@H](C(C)C)C(=O)N(C)[C@@H](CC(C)C)C(=O)N[C@@H](C)C(=O)N[C@H](CCCCN(C)C)C(=O)N(C)[C@@H](CC(C)C)C(=O)N(C)[C@@H](CC(C)C)C(=O)N(C)[C@@H](C(C)C)C(=O)N1C` [Compound 1, [(N,N-ε-Dimethyl)-D-lysyl]^8cyclosporine] was tested, and the “safety margin (antiviral IC50 versus cytotoxicity EC50)” value [1] was “exhibited a safety margin” and the “cytotoxicity at the concentrations that inhibit HIV” value [2] was “not cytotoxic”.

In the case of `C/C=C/C[C@@H](C)[C@@H](O)[C@H]1C(=O)N[C@@H](CC)C(=O)N(C)CC(=O)N(C)[C@@H](CC(C)C)C(=O)N[C@@H](C(C)C)C(=O)N(C)[C@@H](CC(C)C)C(=O)N[C@@H](C)C(=O)N[C@H](CCCCN)C(=O)N(C)[C@@H](CC(C)C)C(=O)N(C)[C@@H](CC(C)C)C(=O)N(C)[C@@H](C(C)C)C(=O)N1C` [Compound 2, [D-Lysyl]^8cyclosporine], the “safety margin (antiviral IC50 versus cytotoxicity EC50)” value [1] is reported as “exhibited a safety margin”.
